Measurements: the supplement of paper PMC10307832

compound: CC[C@@H]1C(=O)N(C)c2cnc(Nc3ccc(C(=O)NC4CCN(C)CC4)cc3OC)nc2N1C1CCCC1 [BI-2536]; test: relative viability (nuclei count vs DMSO), 5 days (fraction); higher = more cells survive; conditions: 1 µM
How it was run: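 Vehicle-anchored 1536-well plates of lung cancer cell lines, held overnight at 37 °C, were pinned with five library-drug doses (not always all listed) spaced by √10. No medium change followed over the next 5 days, after which the cells were fixed, permeabilised and Hoechst-stained together and imaged at 4×. Nuclei were counted with MetaXpress, and viability is treated-well nuclei over vehicle-well nuclei, taken as a median across plates. Plates passed with control CV below 25% and at least one doubling.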

Cell Line	relative viability
NCI-H650	0.131
PC-3 [JPC-3]	0.282

compound: CC1CC(=O)N(C2=CN=C(N=C2N1C3CCCC3)NC4=C(C=C(C=C4)C(=O)NC5CCN(CC5)C)OC)C [NPK76-II-72-1] + CS(=O)(=O)N1CCN(Cc2cc3nc(-c4cccc5[nH]ncc45)nc(N4CCOCC4)c3s2)CC1 [Pictilisib] (partner 1 µM); test: relative viability (nuclei count vs DMSO), 5 days (fraction); higher = more cells survive; conditions: first compound 0.01 µM
How it was run: (§1)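 One day after seeding in 1536-well plates, lung cancer cell lines were dosed by pin tool. Dosing was either single-drug or a fixed anchor-drug dose plus five library-drug doses (not always all listed) in √10 steps. After 5 days, nuclei were stained in one fix-and-stain step and counted on 4× images, and relative viability is the nuclei count of treated wells over that of vehicle wells, given as the median of duplicate plates.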

Cell Line	relative viability
201T	0.642
NCI-H1915	0.988
HCC-827	0.954
LXF-289	0.791
NCI-H23	0.389
NCI-H1299	0.79
NCI-H647	0.38
CAL-12T	0.448
NCI-H1651	0.432
EPLC-272H	0.31
NCI-H2228	0.359
NCI-H1792	0.353
NCI-H1355	0.409
NCI-H3122	0.625
NCI-H1437	0.479
NCI-H1755	0.369
NCI-H2023	0.264
HCC-15	0.704
NCI-H1793	0.309
PC-14	0.6
EKVX	0.418
LC-2-ad	0.428
NCI-H1563	0.658
NCI-H1944	0.351
NCI-H1975	0.267
RERF-LC-KJ	0.491
ABC-1	0.638
NCI-H358	0.352
NCI-H650	0.804
PC-3 [JPC-3]	0.779

same assay, conditions: first compound 0.03162 µM

Cell Line	relative viability
201T	0.618
NCI-H1915	1.08
HCC-827	1.03
LXF-289	0.819
NCI-H23	0.48
NCI-H1299	0.738
NCI-H647	0.427
CAL-12T	0.39
NCI-H1651	0.548
EPLC-272H	0.31
NCI-H2228	0.497
NCI-H1792	0.285
NCI-H1355	0.391
NCI-H3122	0.618
NCI-H1437	0.441
NCI-H1755	0.462
NCI-H2023	0.227
HCC-15	0.778
NCI-H1793	0.472
PC-14	0.692
EKVX	0.437
LC-2-ad	0.515
NCI-H1563	0.66
NCI-H1944	0.352
NCI-H1975	0.278
RERF-LC-KJ	0.543
ABC-1	0.8
NCI-H358	0.364
NCI-H650	0.88
PC-3 [JPC-3]	0.772

same assay, conditions: first compound 0.1 µM

Cell Line	relative viability
201T	0.66
NCI-H1915	0.91
HCC-827	0.98
LXF-289	0.796
NCI-H1299	0.839
NCI-H647	0.401
CAL-12T	0.42
NCI-H1651	0.703
EPLC-272H	0.32
NCI-H2228	0.503
NCI-H1792	0.26
NCI-H1355	0.432
NCI-H3122	0.601
NCI-H1437	0.451
NCI-H1755	0.397
NCI-H2023	0.244
HCC-15	0.706
NCI-H1793	0.483
PC-14	0.619
EKVX	0.437
LC-2-ad	0.445
NCI-H1563	0.602
NCI-H1944	0.318
NCI-H1975	0.28
RERF-LC-KJ	0.546
ABC-1	0.483
NCI-H358	0.334
NCI-H650	0.71
PC-3 [JPC-3]	0.561

same assay, conditions: first compound 0.3162 µM

Cell Line	relative viability
201T	0.7
NCI-H1915	0.846
HCC-827	0.929
LXF-289	0.772
NCI-H23	0.503
NCI-H1299	0.702
NCI-H647	0.406
NCI-H1651	0.557
EPLC-272H	0.296
NCI-H2228	0.402
NCI-H1792	0.29
NCI-H1355	0.434
NCI-H3122	0.652
NCI-H1437	0.427
NCI-H1755	0.432
NCI-H2023	0.257
HCC-15	0.748
NCI-H1793	0.332
PC-14	0.6
EKVX	0.388
LC-2-ad	0.386
NCI-H1563	0.599
NCI-H1944	0.338
NCI-H1975	0.279
RERF-LC-KJ	0.482
ABC-1	0.678
NCI-H358	0.3
PC-3 [JPC-3]	0.667

same assay, conditions: first compound 1 µM

Cell Line	relative viability
201T	0.677
NCI-H1915	0.902
HCC-827	1.08
LXF-289	0.776
NCI-H23	0.534
NCI-H1299	0.777
NCI-H647	0.466
CAL-12T	0.453
NCI-H1651	0.592
EPLC-272H	0.381
NCI-H2228	0.483
NCI-H1792	0.286
NCI-H1355	0.442
NCI-H3122	0.63
NCI-H1437	0.477
NCI-H1755	0.422
NCI-H2023	0.253
HCC-15	0.786
NCI-H1793	0.257
PC-14	0.805
EKVX	0.508
LC-2-ad	0.428
NCI-H1563	0.665
NCI-H1944	0.35
NCI-H1975	0.277
RERF-LC-KJ	0.492
ABC-1	0.743
NCI-H358	0.332
NCI-H650	1.21
PC-3 [JPC-3]	0.743

compound: CC[C@@H]1C(=O)N(C)c2cnc(Nc3ccc(C(=O)NC4CCN(C)CC4)cc3OC)nc2N1C1CCCC1 [BI-2536] + CS(=O)(=O)CCNCc1ccc(-c2ccc3ncnc(Nc4ccc(OCc5cccc(F)c5)c(Cl)c4)c3c2)o1 [Lapatinib] (partner 2 µM); test: as above; conditions: first compound 0.01 µM
How it was run: as §1

Cell Line	relative viability
201T	0.946
NCI-H1915	0.882
HCC-827	0.209
LXF-289	0.889
NCI-H23	1.07
NCI-H1299	0.933
NCI-H647	1.11
CAL-12T	0.646
NCI-H1651	0.754
EPLC-272H	0.894
NCI-H2228	1.38
NCI-H1792	0.93
NCI-H1355	0.996
NCI-H3122	0.943
NCI-H1437	0.784
NCI-H1755	0.968
NCI-H2023	0.963
HCC-15	0.857
NCI-H1793	0.581
PC-14	0.323
EKVX	0.199
LC-2-ad	0.995
NCI-H1563	0.906
NCI-H1944	0.848
NCI-H1975	0.853
RERF-LC-KJ	0.862
ABC-1	1.23
NCI-H358	0.454
NCI-H650	0.882
PC-3 [JPC-3]	0.462

same assay, conditions: first compound 0.03162 µM

Cell Line	relative viability
201T	1.03
NCI-H1915	0.965
HCC-827	0.117
LXF-289	0.839
NCI-H23	0.773
NCI-H1299	0.933
NCI-H647	0.737
CAL-12T	0.799
NCI-H1651	0.8
EPLC-272H	0.828
NCI-H2228	0.629
NCI-H1792	0.751
NCI-H1355	0.976
NCI-H3122	1.07
NCI-H1437	0.718
NCI-H1755	0.982
NCI-H2023	0.613
HCC-15	0.81
NCI-H1793	0.507
PC-14	0.408
EKVX	0.205
LC-2-ad	0.715
NCI-H1563	0.938
NCI-H1944	0.832
NCI-H1975	0.622
RERF-LC-KJ	0.842
ABC-1	1.39
NCI-H358	0.312
NCI-H650	0.85
PC-3 [JPC-3]	0.456

same assay, conditions: first compound 0.1 µM

Cell Line	relative viability
201T	1.03
NCI-H1915	0.752
HCC-827	0.176
LXF-289	0.443
NCI-H23	0.168
NCI-H1299	0.69
NCI-H647	0.104
CAL-12T	0.582
NCI-H1651	0.118
NCI-H2228	0.207
NCI-H1792	1.09
NCI-H1355	0.62
NCI-H3122	0.296
NCI-H1437	0.237
NCI-H1755	0.498
NCI-H2023	0.0796
HCC-15	0.496
NCI-H1793	0.256
PC-14	0.342
EKVX	0.205
LC-2-ad	0.121
NCI-H1563	0.832
NCI-H1944	0.754
NCI-H1975	0.421
RERF-LC-KJ	0.775
ABC-1	1.04
NCI-H358	0.174
NCI-H650	0.166
PC-3 [JPC-3]	0.441

same assay, conditions: first compound 0.3162 µM

Cell Line	relative viability
201T	1.04
NCI-H1915	0.62
HCC-827	0.178
LXF-289	0.0583
NCI-H23	0.171
NCI-H1299	0.291
NCI-H647	0.0701
CAL-12T	0.186
NCI-H1651	0.0889
EPLC-272H	0.483
NCI-H2228	0.165
NCI-H1792	0.186
NCI-H1355	0.194
NCI-H3122	0.258
NCI-H1437	0.116
NCI-H1755	0.204
NCI-H2023	0.0761
HCC-15	0.248
PC-14	0.0746
EKVX	0.142
LC-2-ad	0.127
NCI-H1563	0.568
NCI-H1944	0.678
NCI-H1975	0.153
RERF-LC-KJ	0.179
ABC-1	0.643
NCI-H358	0.161
NCI-H650	0.214
PC-3 [JPC-3]	0.451

same assay, conditions: first compound 1 µM

Cell Line	relative viability
201T	0.38
NCI-H1915	0.0794
HCC-827	0.157
LXF-289	0.0798
NCI-H23	0.147
NCI-H1299	0.235
NCI-H647	0.129
CAL-12T	0.177
NCI-H1651	0.0915
EPLC-272H	0.11
NCI-H2228	0.166
NCI-H1792	0.0746
NCI-H1355	0.183
NCI-H3122	0.228
NCI-H1437	0.122
NCI-H1755	0.272
NCI-H2023	0.142
HCC-15	0.123
NCI-H1793	0.193
PC-14	0.0774
EKVX	0.117
LC-2-ad	0.131
NCI-H1563	0.638
NCI-H1944	0.161
NCI-H1975	0.175
RERF-LC-KJ	0.206
ABC-1	0.529
NCI-H358	0.182
NCI-H650	0.151
PC-3 [JPC-3]	0.233
